molecular target: T1, Bxe_B3018 (MgxR); test: fluorescence anisotropy, collapse of complex with fluorescein-labelled DNA operator; set-up: species or system Paraburkholderia xenovorans; settings: apparent, from loss of DNA operator binding; 250 nM GST-Bxe_B3018, 1 nM DOS; pH 7.5, 30 °C, 1 mM MgCl2, 1 mM DTT
T1 construct: GST-tagged (N-terminal, pGEX-KG / pGEX-T2), tag kept; expressed in Arctic Express cells; GSTrap and Superdex 200 purified

SMILES | Kd
CC(=O)CN [Aa, aminoacetone] | 2100 ± 400 µM
CC(=O)C=O [Mgx, methylglyoxal] | 2100 ± 200 µM
CC(=O)CN(C)C [N,N-dimethylaminoacetone] | 2600 ± 200 µM

— paper PMC4349456, “Automated genomic context analysis and experimental validation platform for discovery of prokaryote transcriptional regulator functions” (BMC Genomics, 2014)
